Test results as given in EP0151110B1 (priority 1983, dated 1985).

Assays:
[1] = in vivo
Excerpt: • ^* Trypan blue test; Hoppe et al. (1950), 39, 147-151 "Use Of Trypan Blue And Rabbit Eye Tests For Irritation", J. Amer. Pharm. Ass. (Scient. Ed.), the values are approximate threshold values of tissue irritancy. • ^** LD50, i.e. 50% mortality of mice. • ^*** Studies On The Duration Of Local Anaesthesia: Structure/Activity Relationships In A Series Of Homologous Local Anaesthetics, by G. Aberg, et al., Acta pharmacol. et toxicol., 41 (1977) pp. 432-443, Table 1 at p. 435.

[2] = Skin temperature within intracutaneous wheals compared with skin outside the wheals during anesthesia; type: in vivo, humans; conditions: for T1 °C Intracutaneous Wheal / °C Difference: HCl-salt; for T1 °C Intracutaneous Wheal: center of wheal, 10 minutes after intracutaneous injection, mean of 6 wheals; for °C Difference: T1 (wheal) minus T2 (controls outside wheal), 10 minutes after injection; for change of temperature over the wheal, in words: Table 4, Conc. 0.25 %
Protocol: The means value of 6 wheals for each substance forms the basis for the values. The control values, however, represent the mean value obtained from 4 different sites measured outside the wheals 90 degrees apart and 2 centimeters from the wheal's center.
In the temperature measurements, an Oriel temperature apparatust has been used. This is battery driven and is connected to a detector (diameter, 2,5 mm) and has an accuracy of ± 0.1°C. The temperature of the skin is measured by pressing the detector against the skin with a pressure of 100 grams.
against the skin until a constant temperature is obtained.
In Table 4, T, is the measurement obtained at the center of the wheal, and T2 is the average of four measurements taken 90 degrees apart outside of the wheal and within 2 centimeters of the wheal's center.

[3] = racemate; from Aberg et al., Acta pharmacol. et toxicol. 41 (1977), Table 1 at p. 435; cited from earlier work
[4] = racemate; from Aberg et al., Acta pharmacol. et toxicol. 41 (1977), Table 1 at p. 435; cited from earlier work; remark: listed apart in the source
in vivo = conditions: mouse, iv, read-out: LD50** I.v. (intravenous) mg/kg/mouse
[5] = test system: periphera nerve ending of the epidermis; experiment: Infiltration anesthesia, intracutaneous wheals on forearms of man (pin-prick); type: in vivo; conditions: compared among 12 optically active and inactive structures
Protocol: By use of intracutaneous wheals it is possible to measure the analgesic effect of an anesthetic on the periphera nerve ending of the epidermis.
This technique gives information about: • (1) the duration of anesthesia. • (2) Epidermal diffusion. • (3) Vascular effects. [formula]
' Infiltration anesthesia on forearms of man. The test solutions were injected intracutaneously on the dorsum of the forearms of 12 healthy volunteers, 20-25 years old. Three wheals were made on each arm in a rotating system in a double-blind fashion. The local anesthetic effect was tested using a pin-prick technique. the "duration of anesthesia" was defined as the time during which none of six pin-pricks into the wheel was felt. The method had been described by Dhuner et al. (1972). Dhuner, K. G., D. H. Lewis, A. Nyquist, D. Selander & E. Stig: Vascular effects of the isomers of mepivacaine, Acta Anaest. Scand. 1972, Supple. 48, 45-52. • * L=Laevo, R=Racemic, D=Dextro • ** C equals grams per 100 ml of solution. • ^*** New isolated stereoisomers [formula]

ulnar volar nerves = experiment: Digital nerve blocks in man (finger blockade); type: in vivo; conditions: compared among 12 optically active and inactive structures
Protocol: ^2 Digital nerve blocks in man. The test solutions were injected to block the ulnar volar nerves on the 2nd and 4th fingers of the same volunteers who has participated in the intracutaneous wheal tests described above. The tests were carried out in a double blind fashion in a rotating system, so that each solution was used with equal frequency on each of the blocked fingers. A total of four injections, 1.0 ml per injection, was done in each subject. One week later the procedure was repeated in the same subjects using the remaining test solutions. This method has been described by Dhuner et al. (1972) (for citation see Table 2 footnote 1). To measure the efficacy and duration of the blocks, the individual fingers were pricked rapidly 10 times with a needle algesimeter and the number of painful pricks noted. Each finger was tested every five minutes until complete recovery. The time of complete anesthesia has been called "duration of anesthesia". • ^* i.e. - the time from injection to complete analgesia • ^** i.e. - the number of successful anesthesias of total number of anesthesias performed (no anesthesia is possible if the ulnar volar nerves are not contacted by the anesthetic) • *** new isolated stereoisomers

SMILES: CCCN1CCCCC1C(=O)Nc1c(C)cccc1C (racemic) [compound 3]
- Tissue* toxicity limits in % [1]: 1.5%

SMILES: CCCCN1CCCCC1C(=O)Nc1c(C)cccc1C (racemic) [No. 4, N-n-butylpipecolic acid-2,6-xylidide]
- T1 °C Intracutaneous Wheal ([2]; Conc. 0.25 %): 31.5 °C
- °C Difference ([2]; Conc. 0.25 %): −0.6 °C

SMILES: CCN1CCCC[C@@H]1C(=O)Nc1c(C)cccc1C [R-N-2-ethyl-pipecolic acid-2,6-xylidide]
- T1 °C Intracutaneous Wheal ([2]; Conc. 1.0 %): 31.2 °C
- °C Difference ([2]; Conc. 1.0 %): +0.5 °C

SMILES: CCCN1CCCCC1C(=O)Nc1c(C)cccc1C (racemic) [No. 3, N-n-propylpipecolic acid-2,6-xylidide]
- T1 °C Intracutaneous Wheal ([2]; Conc. 0.25 %): 33.1 °C
- °C Difference ([2]; Conc. 0.25 %): −0.1 °C
- change of temperature over the wheal, in words [2]: practically no change in temperature
- solubility in water, in words [3]: slightly soluble in water
- Tissue toxicity (tissue irritancy), in words [4]: tissue irritating

SMILES: CCN1CCCCC1C(=O)Nc1c(C)cccc1C (racemic) [compound 2]
- LD50 (in vivo): 21 mg/kg
- Tissue* toxicity limits in % [1]: 3.0%

SMILES: Cc1cccc(C)c1NC(=O)C1CCCCN1C (racemic) [compound 1]
- LD50 (in vivo): 40.3 mg/kg
- Tissue* toxicity limits in % [1]: 3.5%

SMILES: CCCN1CCCC[C@H]1C(=O)Nc1c(C)cccc1C [L-N-n-propylpipecolic acid-2,6-xylidide]
- Tissue* toxicity limits in % [1]: 0.75%
- anesthetic effects, intracutaneous wheal (Table 2), in words [5]: gives the optimal increase of anesthetic effects
- T1 °C Intracutaneous Wheal ([2]; Conc. 0.25 %): 30.0 °C
- °C Difference ([2]; Conc. 0.25 %): −1.2 °C
- change of temperature over the wheal, in words [2]: lowers the temperature over its wheal to approximately the same extent as the combination of lidocaine with adrenaline
- anesthetic effects, finger-blockade (Table 3), in words (ulnar volar nerves): gives the optimal increase of anesthetic effects
